The values that follow are results of earlier work, collected in patent publication US20070281007A1, “Mucoadhesive Oral Formulations of High Permeability, High Solubility Drugs” (priority 2004, published 2007).

Usually bioavailability stands for the share of a dose that reaches the circulation, judged against a reference dose that is usually intravenous.

Structures are written as SMILES. Where two headings read alike, the source gives them in different places.

For `NCC1(CC(=O)O)CCCCC1` [gabapentin], for the setting “at best, 900 mg dose, given three times a day”, the bioavailability is recorded as 60%.
For `CC(C)[C@H](N)C(=O)OCCOCn1cnc2c(=O)[nH]c(N)nc21` [valacyclovir], the bioavailability (in vivo) is listed as approximately 50%.
